Results reported in DBAASP.
Values after ≈ are worked out from the molar mass of the structure shown.

Columns and labels:
Assay in all cases: ≥ marks a high value that may be exact or a test limit, other limits are often not marked, values filed in µg/mL are converted to µM
[1] = test system: Enterococcus faecalis NCTC 12697
[2] = test system: Staphylococcus aureus NCTC 12493
[3] = test system: Klebsiella pneumoniae ATCC 43816
[4] = test system: Staphylococcus aureus NCTC 10788
[5] = test system: Escherichia coli NCTC 10418
[6] = test system: Candida albicans NCTC 1467
[7] = test system: Pseudomonas aeruginosa ATCC 27853
[8] = test system: Cronobacter sakazakii DSM 4485
[9] = test system: Staphylococcus aureus RF122
[10] = test system: Cronobacter muytjensii ATCC 51329
[11] = test system: Pseudomonas fluorescens NCIMB 9046
[12] = test system: Staphylococcus aureus NCTC 8325-4
[13] = test system: Staphylococcus aureus Newman
[14] = test system: Staphylococcus aureus SA113
[15] = test system: Klebsiella pneumoniae NCIMB 13218
[16] = test system: Staphylococcus aureus RN4220
[17] = test system: Escherichia coli NCIMB 11843
[18] = test system: Cronobacter sakazakii DPC 6440
[19] = test system: Cronobacter sakazakii ATCC BAA-894
[20] = test system: Salmonella enterica subsp. enterica serovar Typhimurium LT2
[21] = test system: Escherichia coli KCTC 2223
[22] = test system: Candida albicans ATCC 10231
[23] = test system: Salmonella typhimurium KCTC 2370
[24] = test system: Staphylococcus aureus ATCC 15752
[25] = test system: Pseudomonas aeruginosa H636
[26] = test system: Candida albicans NCYC 1467
Staphylococcus aureus = test system: Staphylococcus aureus
[27] = test system: Staphylococcus aureus ATCC 12493
[28] = test system: Staphylococcus aureus ATCC 25923
[29] = test system: Klebsiella pneumoniae ATCC 700603
[30] = test system: Escherichia coli BW25113 ΔsbmA
Escherichia coli BW25113 = test system: Escherichia coli BW25113
Escherichia coli = test system: Escherichia coli
[31] = test system: Acinetobacter baumannii ATCC 19606
Escherichia coli D31 = test system: Escherichia coli D31
[32] = test system: Staphylococcus aureus ATCC 27660
[33] = test system: Staphylococcus epidermidis ATCC 14990
[34] = test system: Pseudomonas aeruginosa ATCC 10145
[35] = test system: Salmonella enterica subsp. enterica serovar Typhimurium ATCC 700931
[36] = test system: Escherichia coli ATCC 25922
[37] = test system: Klebsiella pneumoniae ATCC 13883
[38] = test system: Staphylococcus aureus USA 300 LAC

How did the MIC [1] turn out when `CSCC[C@H](NC(=O)[C@H](CCC(=O)O)NC(=O)[C@H](CCCCN)NC(=O)[C@H](CC(C)C)NC(=O)[C@H](CCCCN)NC(=O)CNC(=O)[C@H](Cc1c[nH]c2ccccc12)NC(=O)[C@H](CC(C)C)NC(=O)[C@@H](N)CO)C(=O)N[C@@H](CC(C)C)C(=O)N[C@@H](C)C(=O)N[C@@H](CCCCN)C(=O)N[C@@H](C)C(=O)NCC(=O)N[C@@H](CCCCN)C(=O)N[C@@H](C)C(=O)N[C@H](C(=O)N[C@@H](C)C(=O)N[C@@H](CC(N)=O)C(=O)N[C@@H](C)C(=O)N[C@H](C(=O)N[C@@H](CC(N)=O)C(=O)NCC(=O)N[C@@H](CC(C)C)C(=O)N[C@@H](C)C(=O)N[C@@H](CC(N)=O)C(=O)N[C@@H](CCC(N)=O)C(N)=O)C(C)C)C(C)C` [SLWGKLKEMLAKAGKAVANAVNGLANQ] was run?
The MIC was 8 µM (≈ 22.3 µg/mL).

What about the MIC [2] of the same compound?
Its MIC is 8 µM (≈ 22.3 µg/mL).

What about the MIC [3] of the same compound?
The MIC was 8 µM (≈ 22.3 µg/mL).

What about the MIC [4] of the same compound?
The MIC was 8 µM (≈ 22.3 µg/mL).

What about the MIC [5] of the same compound?
The MIC was 8 µM (≈ 22.3 µg/mL).

And the MIC [6]?
Its MIC is 16 µM (≈ 44.5 µg/mL).

And the MIC [7]?
Its MIC is 32 µM (≈ 89 µg/mL).

Which results are given for `CC[C@H](C)[C@H](N)C(=O)N[C@@H](C)C(=O)N[C@@H](C)C(=O)N[C@@H](CCC(N)=O)C(=O)NCC(=O)N[C@@H](CC(C)C)C(=O)N1CCC[C@H]1C(=O)N[C@@H](CCC(N)=O)C(=O)N[C@@H](CCC(=O)O)C(=O)O` [IAAQGLPQE]?
MIC [8]: ≥ 2500 µM; MIC [9]: ≥ 1250 µM; MIC [10]: ≥ 2500 µM; MIC [11]: ≥ 1250 µM; MIC [12]: ≥ 1250 µM; MIC [13]: ≥ 1250 µM; MIC [14]: ≥ 1250 µM; MIC [15]: ≥ 1250 µM; MIC [16]: ≥ 1250 µM; MIC [17]: ≥ 1250 µM; MIC [18]: ≥ 312 µM; MIC [19]: ≥ 2500 µM; MIC [20]: ≥ 1250 µM

Which results are given for `CC(C)C[C@H](NC(=O)[C@H](CCCCN)NC(=O)[C@H](CCCN=C(N)N)NC(=O)[C@H](CCC(N)=O)NC(=O)[C@@H](N)CO)C(=O)N[C@@H](C)C(=O)N[C@@H](C)C(=O)N[C@@H](CCCCN)C(=O)N[C@@H](CC(C)C)C(=O)N[C@H](C(=O)N[C@@H](CO)C(=O)N[C@@H](CCCCN)C(=O)O)[C@@H](C)O` [SQRKLAAKLTSK]?
MIC [21]: ≥ 32 µM; MIC [22]: > 32 µM; MIC [23]: ≥ 32 µM; MIC [24]: ≥ 32 µM; MIC [25]: ≥ 32 µM

Which MIC [1] does the source give for `CC[C@H](C)[C@H](NC(=O)[C@H](CO)NC(=O)[C@H](CCCCN)NC(=O)[C@H](Cc1c[nH]c2ccccc12)NC(=O)[C@H](CC(C)C)NC(=O)[C@H](C)N)C(=O)N[C@@H](CC(C)C)C(=O)N[C@@H](CCCCN)C(=O)N[C@@H](CC(N)=O)C(=O)N[C@H](C(=O)NCC(=O)N[C@@H](CCCCN)C(=O)N[C@@H](C)C(=O)N[C@@H](C)C(=O)NCC(=O)N[C@@H](CCCCN)C(=O)N[C@@H](C)C(=O)N[C@H](C(=O)N[C@@H](CC(C)C)C(=O)N[C@@H](CC(N)=O)C(=O)N[C@@H](C)C(=O)N[C@H](C(=O)N[C@H](C(=O)N[C@@H](CC(=O)O)C(=O)N[C@@H](CCSC)C(=O)N[C@H](C(=O)N[C@@H](CC(N)=O)C(=O)N[C@@H](CCC(N)=O)C(N)=O)C(C)C)[C@@H](C)O)C(C)C)C(C)C)C(C)C` [ALWKSILKNVGKAAGKAVLNAVTDMVNQ] here?
Its MIC is ≥ 32 µM.

What about the MIC [3] of the same compound?
The MIC was 8 µM (≈ 23.5 µg/mL).

What about the MIC [4] of the same compound?
The MIC was 2 µM (≈ 5.88 µg/mL).

And the MIC [5]?
The MIC was 4 µM (≈ 11.8 µg/mL).

What about the MIC [26] of the same compound?
The MIC was 2 µM (≈ 5.88 µg/mL).

What about the MIC (Staphylococcus aureus) of the same compound?
Its MIC is 4 µM (≈ 11.8 µg/mL).

And the MIC [27]?
The MIC was 2 µM (≈ 5.88 µg/mL).

And the MIC [7]?
Its MIC is 4 µM (≈ 11.8 µg/mL).

For `CC[C@H](C)[C@H](NC(=O)[C@@H]1CCCN1C(=O)[C@H](CCCN=C(N)N)NC(=O)[C@H](CCCN=C(N)N)NC(=O)[C@H](Cc1c[nH]c2ccccc12)NC(=O)[C@@H](N)CCCN=C(N)N)C(=O)N[C@@H](CCCN=C(N)N)C(=O)N[C@@H](CCCN=C(N)N)C(=O)N[C@@H](CCCN=C(N)N)C(=O)N1CCC[C@H]1C(=O)N[C@H](C(=O)N[C@@H](CCCN=C(N)N)C(=O)N1CCC[C@H]1C(=O)N1CCC[C@H]1C(=O)N[C@@H](Cc1ccccc1)C(=O)N[C@@H](Cc1ccc(O)cc1)C(=O)N[C@@H](Cc1c[nH]c2ccccc12)C(=O)O)[C@@H](C)CC` [RWRRPIRRRPIRPPFYW], which MIC [28] is on record?
Its MIC is 32 µM (≈ 77.1 µg/mL).

And the MIC [29]?
Its MIC is 64 µM (≈ 154 µg/mL).

What about the MIC [30] of the same compound?
Its MIC is 4 µM (≈ 9.64 µg/mL).

What about the MIC (Escherichia coli BW25113) of the same compound?
The MIC was 4 µM (≈ 9.64 µg/mL).

What about the MIC [7] of the same compound?
The MIC was 32 µM (≈ 77.1 µg/mL).

What about the MIC (Escherichia coli) of the same compound?
Its MIC is 1.41 µM (≈ 3.41 µg/mL).

What about the MIC [31] of the same compound?
Its MIC is 2 µM (≈ 4.82 µg/mL).

`C[C@H](N)C(=O)N[C@@H](Cc1ccccc1)C(=O)N[C@@H](Cc1c[nH]c2ccccc12)C(=O)N[C@@H](CCCCN)C(=O)N[C@@H](CCCCN)C(=O)N[C@@H](Cc1ccccc1)C(=O)N[C@@H](Cc1ccccc1)C(=O)N[C@@H](CCCCN)C(=O)N[C@@H](CCCCN)C(=O)N[C@@H](Cc1ccccc1)C(=O)N[C@@H](Cc1ccccc1)C(=O)N[C@@H](CCCCN)C(=O)N[C@@H](CO)C(=O)N[C@@H](C)C(=O)N[C@@H](CCCCN)C(=O)N[C@@H](CCCCN)C(=O)N[C@@H](Cc1ccccc1)C(=O)NCC(=O)O` [AFWKKFFKKFFKSAKKFG] was tested. Which MIC (Escherichia coli D31) did it give?
The MIC was 1.88 µM (≈ 4.27 µg/mL).

What about the MIC [32] of the same compound?
The MIC was 1.88 µM (≈ 4.27 µg/mL).

And the MIC [33]?
Its MIC is 0.94 µM (≈ 2.13 µg/mL).

What about the MIC [34] of the same compound?
The MIC was 1.88 µM (≈ 4.27 µg/mL).

And the MIC [35]?
The MIC was 1.88 µM (≈ 4.27 µg/mL).

How did the MIC [36] turn out when `CC[C@H](C)[C@H](NC(=O)[C@H](CCCCN)NC(=O)[C@H](CCCN=C(N)N)NC(=O)[C@H](CC(C)C)NC(=O)[C@H](Cc1c[nH]c2ccccc12)NC(=O)[C@H](Cc1c[nH]c2ccccc12)NC(=O)[C@@H](N)Cc1c[nH]c2ccccc12)C(=O)N[C@@H](Cc1c[nH]c2ccccc12)C(N)=O` [WWWLRKIW] was run?
The MIC was 8.8 µM (≈ 11.2 µg/mL).

And the MIC [37]?
Its MIC is 12.5 µM (≈ 15.9 µg/mL).

And the MIC [38]?
The MIC was 3.1 µM (≈ 3.94 µg/mL).
